Assay results published in paper PMC5653977 (EMBO Molecular Medicine, 2017).

Columns and labels:
TEV protease = molecular target: T1, TEV protease (Tobacco etch virus, UniProt P04517); assay: TEV protease activity control assay (TM-TEV/TM-tevS-GV); type: cell-based; conditions: TM-TEV, TM-tevS-GV and 10×UAS-Fluc in PC12 cells
T1 construct: a transmembrane‐localized TEV protease (TM‐TEV) was expressed in PC12 cells; expressed in transfected cells; host or cells: PC12 Tet-Off cells (rat)
Excerpt: (§1) All counts (407 compounds and 96 controls) from the Nrg1‐ERBB4‐PIK3R1 split TEV compound screen were plotted against the z‐score using Mondrian, with pathway activators displaying high values and inhibitors low values. For the secondary analysis, we selected all candidates that were at least three standard deviations away from the mean. […] For the GAL4/UAS assay, GAL4‐VP16 (GV) and 10×UAS firefly luciferase (10×UAS‐Fluc) plasmids were transfected into PC12 cells. For TEV protease activity assays, a transmembrane‐localized TEV protease (TM‐TEV) was expressed in PC12 cells with a transmembrane‐localized and TEV‐cleavable GV (TM‐tevS‐GV) and the 10×UAS‐Fluc reporter. […] EGFld was applied as Nrg1 stimulus. In both control assays, the assay activity (firefly luciferase, black lines) was similar to the toxicity levels (gray lines). Data are shown as mean, a nd error bars represent SEM, n = 6. The insets depict IC50 values in μM.

[1] = design: method as in Zhou et al, 2011; conditions: ref Zhou et al, 2011; cited from earlier work
Nrg1-tg and wt mice [2] = assay: Prepulse inhibition (PPI); type: in vivo, mouse
Procedure: (§2) For behavioral testing, age‐matched male mice (8–16 weeks) on C57Bl/6 background that constitutively overexpress the 2xHA‐tagged Nrg1 type III β1a isoform (Nrg1‐tg) under the control of the mouse Thy1.2 promoter (Velanac et al, 2012) and their wild‐type (wt) littermates as controls were used. Animals were group‐housed in the same ventilated sound‐attenuated rooms under a 12‐h light/12‐h dark schedule (lights on at 8:00 am) at an ambient temperature of 21°C with food and water available ad libitum. One week prior to experiments, mice were separated into single cages and habituated to the experimental rooms. To minimize the influence of the circadian rhythm on drug actions, the treatment groups were analyzed at balanced time points during the light phase. […] All animal experiments were conducted in accordance with NIH principles of laboratory animal care and were approved by the Government of Lower Saxony, Germany, in accordance with the German Animal Protection Law.
(§3) Treatment was continued throughout the behavioral analysis period. To avoid injection‐induced stress prior to behavioral testing, mice were injected in the afternoon, after the entire cohort has completed the behavioral paradigm.
The startle response was measured using a two test cabinet (SR‐LAB, San Diego Instruments) using a protocol as described in Brzózka et al (2010).

[3] = tested on: pyramidal neurons of the prefrontal cortex; assay: Spontaneous inhibitory postsynaptic currents (sIPSCs) in acute prefrontal cortex slices; type: cell-based, mouse; conditions: 10 μM, bath application
Procedure: (§4) 300‐μm‐thick transverse slices comprising the medial prefrontal cortex (mPFC) area were prepared from 7‐ to 8‐week‐old C57Bl/6 mice as described previously (Teng et al, 2013; Agarwal et al, 2014). All recordings were performed in cortical layer V projection neurons. The bath solution consisted of oxygenated artificial cerebrospinal fluid (ACSF) containing NaCl 126 mM, KCl 3 mM, NaH2PO4 1.25 mM, MgSO4 1 mM, NaHCO3 26 mM, CaCl2 2 mM, glucose 10 mM, and the pH 7.2 adjusted with NaOH. Spontaneous GABAergic inhibitory postsynaptic currents (sIPSC) and evoked GABAergic inhibitory postsynaptic currents (eIPSC) were recorded at a holding potential of −70 mV in the presence of 6‐cyano‐7‐nitroquinoxaline‐2,3‐dione (CNQX, 10 μM) and DL‐2‐amino‐5‐phosphonovaleric acid (D‐APV, 50 μM). Glass pipettes were filled with the solution containing: KCl 140 mM, MgCl2 2 mM, CaCl2 1 mM, Na2GTP 0.5 mM, Na2ATP 4 mM, EGTA 10 mM, HEPES 10 mM. Patches with a series resistance of > 25 MΩ, a membrane resistance of < 0.8 GΩ, or leak currents of > 150 pA were excluded. Biphasic rectangular electric pulses (10 ms, 100–300 μA) were applied to layer I of the prelimbic area of mPFC through another glass pipette filled with ACSF. Synaptic currents were acquired at 20 kHz and filtered at 6 kHz, with a Digidata 1440 ADC‐converter coupled to a Multiclamp 700B amplifier (Molecular Devices, USA). Data acquisition was performed using pClamp10 software (Molecular Devices). MiniAnalysis 6.0.9 (Synaptosoft Inc., Decatur, USA) and pClamp10.1 were used for amplitude and frequency analysis of sIPSCs and eIPSCs, respectively. Paired Student's t‐test was used for statistical analysis.

[4] = tested on: pyramidal neurons of the prefrontal cortex; assay: Evoked inhibitory postsynaptic currents (eIPSCs) in acute prefrontal cortex slices; type: cell-based, mouse; conditions: 5 μM in the presence of canrenone (10 μM)
Procedure: as §4, with “Data acquisition was performed using pClamp10 software (Molecular Devices). MiniAnalysis 6.0.9 (Synaptosoft Inc., Decatur, USA) and pClamp10.1 were used for amplitude and frequency analysis of sIPSCs and eIPSCs, respectively. Paired Student's t‐test was used for statistical analysis.” left out

[5] = molecular target: ERBB2-NTEV-tevS-GV + ERBB2-CTEV (Homo sapiens, UniProt P04626); assay: ERBB dimerization split TEV assay ERBB2/ERBB2; type: cell-based; conditions: 10 ng/ml EGFld
Excerpt: Gateway recombination cloning (Life Technologies) was applied for generating plasmids. Each ORF cloned was PCR‐amplified using the Pwo proofreading DNA polymerase (Roche) and BP‐recombined into the pDONR/Zeo plasmid (Life Technologies) to yield an entry vector, which was control‐digested using BsrGI to release the insert, and sequence‐verified. The following human ORFs were cloned using cDNA image clones ordered from Source BioScience: ERBB4 transcript variant JM‐a/CYT‐1 (Accession: BC112199), PIK3R1 (BC094795), GRB2 transcript variant 1 (BC000631), SHC1 transcript variant 2 (BC014158), STAT5A (BC027036), and SRC transcription variant 1 (BC051270). For EGFR, ERBB2, and ERBB3, entry vectors were obtained from the human CCSB kinase collection available from Addgene (Johannessen et al, 2010). Entry vectors were LR‐recombined into split TEV destination vectors [either pcDNA_attR1‐ORF‐attR2‐NTEV‐tevS‐GV‐2xHA_DEST or pTag4C_attR1‐ORF‐attR2‐CTEV‐2xHA_DEST, plasmids were described in detail before (Wehr et al, 2006)] to yield expression vectors, which were control‐digested using BsrGI. The plasmids for Nrg1 type I β1a and rat Nrg1 type III β1a have been described before (Wehr et al, 2006).

GAL4/UAS system = assay: GAL4/UAS control assay; type: cell-based; conditions: GV and 10×UAS-Fluc plasmids in PC12 cells
Excerpt: as §1

Nrg1-tg and wt mice [6] = assay: Y-maze test; type: in vivo, mouse; conditions: 50 mg/kg s.c. daily
Procedure: as §2, §3

Nrg1-tg and wt mice [7] = assay: Light-dark preference test; type: in vivo, mouse; conditions: 50 mg/kg s.c. daily
Procedure: as §2, §3

[8] = 50 mg/kg s.c. daily for 3 weeks and throughout phenotyping, vs vehicle
[9] = before vs after chronic treatment, 50 mg/kg s.c. daily

T1 sequence (P04517 2038-2279): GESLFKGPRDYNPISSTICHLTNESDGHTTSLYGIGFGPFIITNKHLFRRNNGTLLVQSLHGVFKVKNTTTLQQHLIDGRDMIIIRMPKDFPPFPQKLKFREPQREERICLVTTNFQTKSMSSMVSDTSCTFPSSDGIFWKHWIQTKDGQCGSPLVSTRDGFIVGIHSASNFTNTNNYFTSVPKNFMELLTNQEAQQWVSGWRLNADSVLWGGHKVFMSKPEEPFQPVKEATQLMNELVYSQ
Chain of ERBB2-NTEV-tevS-GV + ERBB2-CTEV (P04626 23-1255): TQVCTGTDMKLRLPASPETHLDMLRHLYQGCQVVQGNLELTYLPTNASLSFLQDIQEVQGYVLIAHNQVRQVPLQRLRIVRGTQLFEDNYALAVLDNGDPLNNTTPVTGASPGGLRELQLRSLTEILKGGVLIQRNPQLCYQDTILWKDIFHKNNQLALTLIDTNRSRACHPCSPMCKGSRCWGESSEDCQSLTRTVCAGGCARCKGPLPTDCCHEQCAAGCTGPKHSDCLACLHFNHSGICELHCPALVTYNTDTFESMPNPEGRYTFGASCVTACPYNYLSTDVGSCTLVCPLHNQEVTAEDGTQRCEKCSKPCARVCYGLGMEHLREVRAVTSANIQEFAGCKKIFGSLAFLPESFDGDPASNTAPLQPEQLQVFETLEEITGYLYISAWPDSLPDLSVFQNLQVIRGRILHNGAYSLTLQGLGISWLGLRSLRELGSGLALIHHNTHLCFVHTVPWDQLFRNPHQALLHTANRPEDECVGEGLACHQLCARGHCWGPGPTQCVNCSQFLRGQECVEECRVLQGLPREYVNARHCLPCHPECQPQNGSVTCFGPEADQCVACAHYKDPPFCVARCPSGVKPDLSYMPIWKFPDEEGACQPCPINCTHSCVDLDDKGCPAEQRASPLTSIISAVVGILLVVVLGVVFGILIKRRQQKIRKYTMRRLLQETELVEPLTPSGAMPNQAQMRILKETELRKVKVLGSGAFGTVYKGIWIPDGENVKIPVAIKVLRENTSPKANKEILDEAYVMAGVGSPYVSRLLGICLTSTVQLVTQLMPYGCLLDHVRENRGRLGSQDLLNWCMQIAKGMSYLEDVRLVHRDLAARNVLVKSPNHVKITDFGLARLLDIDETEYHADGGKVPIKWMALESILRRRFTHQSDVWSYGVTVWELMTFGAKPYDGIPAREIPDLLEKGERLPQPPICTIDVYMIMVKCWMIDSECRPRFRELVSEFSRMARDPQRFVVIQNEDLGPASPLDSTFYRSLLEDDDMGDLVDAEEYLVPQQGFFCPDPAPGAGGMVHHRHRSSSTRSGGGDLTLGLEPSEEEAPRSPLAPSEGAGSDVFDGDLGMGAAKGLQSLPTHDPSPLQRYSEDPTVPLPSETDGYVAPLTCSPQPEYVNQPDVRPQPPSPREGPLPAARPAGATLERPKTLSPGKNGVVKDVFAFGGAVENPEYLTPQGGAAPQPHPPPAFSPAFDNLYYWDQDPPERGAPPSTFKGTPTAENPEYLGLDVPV
Chain of ERBB2-NTEV-tevS-GV + ERBB2-CTEV (P04626 23-1255): as above

CC(=O)S[C@@H]1CC2=CC(=O)CC[C@]2(C)[C@H]2CC[C@@]3(C)[C@@H](CC[C@@]34CCC(=O)O4)[C@H]12 [Spironolactone]
effect on activity of the TEV protease (TEV protease): does not affect activities of control assays
recent fear memory formation in mice [1]: impaired recent fear memory formation
PPI in Nrg1-tg mice, four-arm study (Nrg1-tg and wt mice [2]; [8]): significantly enhanced
PPI in wt mice, four-arm study (Nrg1-tg and wt mice [2]; [8]): did not influence PPI
PPI in Nrg1-tg mice, pilot two-arm study (Nrg1-tg and wt mice [2]; [9]): significantly improved
PPI in wt controls, pilot two-arm study (Nrg1-tg and wt mice [2]; [9]): had no effect
sIPSC amplitude [3]: increase
sIPSC frequency [3]: increase
eIPSC amplitude [4]: significantly increased
IC50 [5]: 13.1 µM
effect on activity of the GAL4/UAS system (GAL4/UAS system): does not affect activities of control assays
arm choices in the Y-maze (activity) (Nrg1-tg and wt mice [6]): There was no effect of treatment
working memory (alterations in the Y-maze) (Nrg1-tg and wt mice [6]; Nrg1-tg mice): rescued these deficits
time in the light compartment (Nrg1-tg and wt mice [7]): spent more time in the light compartment
